Laboratory results published in patent US20250127908A1, “HETEROBIFUNCTIONAL CONDITIONAL INHIBITORS” (Kolm Therapeutics Inc., priority 2023, published 2025).

Legend:
VCaP cells = assay: VCaP growth inhibition assay (CTG); format: cell-based; settings: Homo sapiens, 216 h, 30 pM R1881, 9-day treatment, CTG luminescence
Description: Example B-2: VCaP Growth Inhibition Assay
VCaP cells (ATCC Cat #CRL-2876) are plated at 1×10^4 cells per well of a white plastic 96-well cluster plate (Thermo Scientific Nunc Cat #165306) in 100 uL phenol red-free DMLEM (Gibco Cat #21063-029) media with […] (Omega Scientific Cat #FB-04). Cluster plates are returned to the incubator (37*C/5% CO2) for 72 hours prior to treatment. Just prior to treatment, 100 uL of phenol red-free DMEM/5% CSS and 60 pM Ri881 (Sigma Cat #R0908-10 mg) was added to each well of the cluster plates (Final R1881 concentration=30 pM). Compounds (200×) were added to each well in a volume of 1 uL, with serial dilutions (1:5) from 20 uM to 2 pM (final concentrations in well are 100 nM to 10 fMV). Cluster plates are returned to the incubator for 9 days.
(§1) After the 9-day treatment period, media was removed from the cluster plates by inversion and 100 uL room temperature CTG reagent (Promega Cat #G7573) is added to each well. The cluster plates are placed on a shaker and incubated at room temperature for 20 minutes. Following this shaking/incubation, cluster plates are read on a luminometer (BMG ClarioStar). IC50 values are obtained by graphing the RLU data vs. compound concentration with nonlinear regression 4-parameter logistic curves (GraphPad Prism).

HEK-293 cells = assay: HEK-293 growth inhibition assay (CTG); format: cell-based; settings: Homo sapiens, HEK293, 72 h, 3-day treatment, CTG luminescence
Description: Example B-4: HEK-293 Growth Inhibition Assay
HEK-293 cells (ATCC Cat #CRL-1573) are plated at 3×10^3 cells per well of a white plastic 96-well cluster plate (Thermo Scientific Nunc Cat #165306) in 200 uL DMLEM (ATCC Cat #30-2002) media with 10% FBS (Gibco Cat #26140-079). Cluster plates are returned to the incubator (37*C/5% CO2) for 24 hours prior to treatment. Compounds (200×) were added to each well in a volume of 1 uL, with serial dilutions (1:5) from 2 mM to 200 pM (final concentrations in well are 10 uM to 1 pM). Cluster plates are returned to the incubator for 3 days.
as §1, with “3-day” for “9-day”, “period, 100 uL” for “period,”, “each well” for “the cluster plates”, “aspiration” for “inversion”, “added back” for “added”, “ICs50” for “IC50”

IC50 (VCaP cells): 1 to 100 nM
Structure (SMILES): CNC(=O)N1CCc2c(c(N3CCCc4cc(-c5cnn(C)c5)c(C(F)F)cc43)nn2C2CCN(C(=O)COCCOCC3CCN(CC4CCN(c5ccc([C@H]6c7ccc(O)cc7CC[C@H]6c6ccccc6)cc5)CC4)CC3)CC2)C1 [Compound 10, 3-[7-(difluoromethyl)-6-(1-methylpyrazol-4-yl)-3,4-dihydro-2H-quinolin-1-yl]-1-[1-[2-[2-[[1-[[1-[4-(6-hydroxy-2-phenyl-tetralin-1-yl)phenyl]-4-piperidyl]methyl]-4-piperidyl]methoxy]ethoxy]acetyl]-4-piperidyl]-N-methyl-6,7-dihydro-4H-pyrazolo[4,3-c]pyridine-5-carboxamide]
IC50 (HEK-293 cells): > 1000 nM
